Data: patent US12501919B2, “Method for increasing anthocyanin content in carrots” (UNIVERSITY OF COPENHAGEN, priority 2016, dated 2025)
Entries after “also recorded” stand apart in the source; their conditions may differ.

Tests used:
[1] = test system: black carrot (Deep Purple F1) roots; experiment: Field trial, foliar spray on black carrot, small plots harvested 21 weeks after sowing; assay type: in vivo, Daucus carota ssp. sativus var. atrorubens Alef.; settings: for increase of mean anthocyanin concentration of treated plants compared with respective controls: 21 weeks after sowing, foliar spray, 6 applications; for accumulation of anthocyanin in roots: field-applied, measured twenty-one weeks after sowing (FIG. 1, FIG. 2)
Procedure: (§1) The experiment consisted on a factorial combination of […] (Deep Purple F1) and three sowing dates: 19 May 2014, and 18 and 25 May 2015, in field trials in Taastrup, Denmark, at the experimental station in Højbakkegård (latitude 55, longitude […]). Seeds were provided by Chr. Hansen A/S. Plants were cultivated on loamy soil. Air temperatures during the growing period were slightly different in both years of cultivation (mean values of 2 years: 15.4 and 14.6° C., May-October). Rainfall was complemented by irrigation throughout carrot growth to avoid water stress. The routine techniques of cultivation and plant protection, recommended for carrot crop production were applied.
(§2) Plots were arranged in a randomized block design with three replications. In the three sowing dates, each plot consisted of three 4.5 m-long rows. Additionally, plots of three 12 m-long rows were arranged in 18 May 2015. 2-Chloroethylphosphonic acid solution (CERONE® brand ETHEPHON, 39.9% Bayer CropScience, Leverkusen, Germany) was applied as a foliar spray avoiding the rainy days, at rates of 0, 120 and 360 g·ha^−1 a.i. in 2014; 0, 360, and 720 g·ha^−1 a.i. in 2015 for small plots; and 0 and 360 g·ha^−1 a.i. for large plots. Applications were made using a CO2 backpack spaced 50 cm apart, beginning 6 weeks after planting and continuing every 3 weeks, for a total of 6 applications.
Small plots (4.5 m-long rows) were harvested 21 weeks after sowing. The roots were manually harvested from the middle part of each row.
In all analyses, 20 whole carrot roots per plot were washed and split lengthwise: 20 halves were ground in liquid nitrogen, and the generated powder was stored at −80° C. for further gene expression analyses; the complementary 20 halves were coarsely ground in a commercial blender, and 50 g of the resulting purée were immediately homogenized in 50 g of a 3% sulfuric acid solution (v/v), by using a Waring two-speed commercial blender (VWR—Bie & Berntsen, Herlev, Denmark). The resulting fine purée (4 g) was subsequently mixed with demineralized water (8 g) and vortexed. After incubation for 1 h at room temperature, the sample was centrifuged 20 min at 4500 rpm, and the supernatant (extract) was utilized for further analyses.
Soluble solids were calculated with a digital refractometer with automatic temperature compensation and operating range from 0 to 53° Brix. For its calculation, the carrot extract obtained was filtered through 0.45 μm membrane filters, and Brix measurements were performed using 1 mL of the filtrate. For each measurement, two technical replicates were made and their average was reported.
Dry matter was determined by the mass difference between the fresh sample and the dry sample. The sample was dried 24 h until it reached a constant weight using an oven at 90° C. The results were expressed as percentage of dry matter. For each measurement, two technical replicates were made and their average was reported.
(§3) TMC was measured spectrophotometrically based on the pH differential method, with slight modifications. The carrot extract was diluted by adding 20 volumes of 0.2 M KCl-HCl pH 1, and TMC was measured at […] and 700 nm (to correct for sediment) using a UV-Vis spectrophotometer (Evolution™ 220, Thermo Fischer Scientific, Waltham, MA, USA). The TMC was expressed as cyaniding-3-glucoside equivalents (ppm).
All analyses were performed with three technical and three biological replicates. Data were subjected to statistical analysis using SPSS software (version 22, SPSS Inc., Chicago, IL, USA). Treatments were compared using one-way analysis of variance (ANOVA) followed by a Tukey post hoc test. p<0.05 was considered significant.

[2] = test system: black carrot (Deep Purple) roots; experiment: Field trial, foliar spray on black carrot, large plots with successive harvests 7 to 35 weeks after planting; assay type: in vivo, Daucus carota ssp. sativus var. atrorubens Alef.
Procedure: as §1, §2
Large plots (12 m-long rows) were harvested several times from separate row segments, during the growing period from 30 Jun. 2015 to 19 Jan. 2016 (7, 10, 13, 16, 19, 22, 25, 26, 29 and 35 weeks after planting). Carrot production was estimated in large plots 21 weeks after planting: two meters per row was dug from each plot, and the carrots were washed and weighed. Measured weights were extrapolated to tons per hectare. […]
Soluble solids were calculated with a digital refractometer with automatic temperature compensation and operating range from 0 to 53° Brix. […]
Dry matter was determined by the mass difference between the fresh sample and the dry sample. […] The results were expressed as percentage of dry matter. […]
as §3, with “(ppm). […]” for “(ppm).”

[3] = treated plants versus controls (FIG. 1)

Compound: O=P(O)(O)CCCl [2-Chloroethylphosphonic acid]
- effect of total amount applied on the accumulation of anthocyanin ([1]; 120, 360 and 720 g ha^-1 a.i. treatments compared, either growing season): no differences were found; also recorded: nonsignificant effect
- increase of mean anthocyanin concentration of treated plants compared with respective controls ([1]; Harvest 1 (first of three repetitions of two growing seasons)): 49%
- increase of mean anthocyanin concentration of treated plants compared with respective controls ([1]; Harvest 2 (second of three repetitions)): 38%
- increase of mean anthocyanin concentration of treated plants compared with respective controls ([1]; Harvest 3 (third of three repetitions)): 65%
- root weight ([1]; either growing season (FIG. 1)): did not affect
- accumulation of anthocyanin in roots [1]: induced the accumulation of anthocyanin
- accumulation of anthocyanin in roots ([1]; listed as ethylene-releasing compound): increased amounts of anthocyanin; also recorded: induced the accumulation of anthocyanin
- increase of mean anthocyanin concentration in the roots of treated plants compared with respective controls (summary) ([1]; pre-harvest foliar spraying on black carrot leaves, over all repetitions): more than 35%
- dry weight (DW) [1, 3]: lowest values
- soluble sugar content (SSC) [1, 3]: lowest values
- root colour in cross and longitudinal sections ([1]; treated roots versus untreated roots with white core (FIG. 2)): solid purple colour
- TMC after the last application ([2]; 7 weeks after the application of the last treatment (22 to 27 weeks after planting) (FIG. 3A)): continued to increase
- root length, treated versus untreated carrots ([2]; at each harvest time (FIG. 4)): differed insignificantly
- root weight, treated versus untreated carrots ([2]; at each harvest time (FIG. 4)): differed insignificantly
- mean anthocyanin concentration (TMC) of treated roots versus untreated ([2]; at every harvest point, 7 to 35 weeks after planting, 360 g ha^-1 a.i.): higher
